Data taken from US5935944A, “Formulation for I.V. administration of the boron delivery drug, boronophenylalanine (BPA)” (Neutron Technology Corporation, priority 1996, dated 1999).
Converted amounts (≈) assume the structure as drawn.

Tests used:
[1] = pH 7.4; background statement; cited from earlier work
cancer cells = conditions: apparently by amino acid transport system uptake; cited from earlier work

Description for physchem: For solubility determinations, an excess of BPA was always used. All formulations were sonicated (ultrasonic wave treatment), adjusted to a final pH of 7.4, and filtered through a 0.22 micron filter. The BPA concentration of filtered solutions was calculated from B levels which were measured by inductively coupled plasma atomic emission spectrometry. […] Unless otherwise specified, BPA and B levels are reported as mean±standard error of the mean (SEM) of three experiments.

solubility (physchem; buffer, pH 7.4, aqueous buffer): 2200 ± 400 µg/mL (≈ 10.5 mM) | solubility (physchem; water, pH 7.4, water): 1150 to 3700 µg/mL (≈ 5.5 to 17.7 mM)
SMILES: NC(Cc1ccc(B(O)O)cc1)C(=O)O (stereo not shown) [BPA, P-boronophenylalanine]
water solubility at physiological pH [1]: < 4 ppm | selective accumulation in cancer cells (cancer cells): does seem to selectively accumulate in cancer cells
